Tests used:
Experiment in all cases: biochemical
Design in all cases: radiometric methyltransferase assay with tritiated SAM, IC50
PRMT1 = PRMT1 (Homo sapiens, UniProt Q99873)
Experimental: (§1) The methyltransferase selectivity was assessed at two compound concentrations of 1 and 10 μM by radiometric assays using tritiated-SAM. For methyltransferases: MLL1, MLL3, EZH1 (PRC2), and EZH2 (PRC2), G9a, GLP, SUV39H1, SUV39H2, SUV420H1, SUV420H2, SETD2, SETD8, SETDB1, SETD7, PRMT1, PRMT3, PRMT4, PRMT5/ MEP50 complex, PRMT6, PRMT7, PRMT8, PRMT9, PRDM9, SMYD2, SMYD3, DNMT1, and BCDIN3D the incorporation of a tritium-labeled methyl group into biotinylated substrate was monitored using scintillation proximity assay (SPA). Briefly, a 10 μL reaction containing ^3H-SAM and substrate at concentrations close to the apparent Km values for each enzyme (balanced conditions) was prepared. The reactions were quenched with 10 μL of 7.5 M guanidine hydrochloride; 180 μL of 20 mM Tris buffer (pH 8.0) were added, and the mixture was transferred to a 96-well FlashPlate and incubated for 1 h. The counts per minute (CPM) was measured on a TopCount plate reader. The CPM in the absence of compound or enzyme was defined as 100% activity and background (0%), respectively, for each dataset[74]–[76]. Selectivity of SGC8158 against 342 kinases was evaluated in a kinase panel TR-FRET assay at 1 and 0.1 μM compound in duplicates as described before. Briefly, tagged kinases were incubated with compound and staurosporine-based fluorescent probe where the binding was detected using Tb conjugated anti-tag antibody energy transfer to the probe. Excitation wavelength was 337 nm and fluorescent emission signal was measured for Tb (486 nm) and fluorescent probe (BODIPY, 515 nm). Specific and non-specific binding was determined in the absence and presence of unlabeled staurosporine. Assays using biotinylated H2B (23–37) as a substrate were performed in buffer (20 mM Tris–HCl, pH 8.5, 0.01% Tween-20, and 5 mM DTT) containing 5 nM PRMT7, 1.1 µM ^3H-SAM (Cat.# NET155V250UC; Perkin Elmer; www.perkinelmer.com) and 0.3 µM H2B (23–37). The reaction mixtures were incubated for 60 min at 23 °C. To stop the enzymatic reactions, 10 µL of 7.5 M guanidine hydrochloride was added, followed by 180 µL of buffer (20 mM Tris, pH 8.0), mixed and then transferred to a 96-well FlashPlate (Cat.# SMP103; Perkin Elmer; www.perkinelmer.com). After mixing, the reaction mixtures in Flash plates were incubated for 1 h and the CPM were measured using Topcount plate reader (Perkin Elmer, www.perkinelmer.com). The CPM counts in the absence of compound for each dataset were defined as 100% activity. In the absence of the enzyme, the CPM counts in each dataset were defined as background (0%). The IC50 values were determined using GraphPad Prism 7 software. For the kinetic analysis of HSPA8 methylation by PRMT7, the assay mixture contained 20 mM Tris–HCl, pH 8.5, 0.01% Tween-20, and 5 mM dithiothreitol (DTT), 1 mM MgCl2, 1 mM ATP where indicated, 250 nM PRMT7, fixed concentration (20 µM) of SAM, various concentrations (up to 40 µM) of HSPA8; or fixed concentration (10 µM) of HSPA8 with different concentrations of SAM (up to 20 µM). […] To determine the mode of action, the experiments were performed in the presence of fixed biotinylated H2B peptide (residues 23–37) or HSPA8 substrate concentration and increasing SAM concentration or at fixed concentration of SAM and varying concentration of the substrate. Twenty µL of reaction mixtures were incubated at 23 °C for 60 min. To stop reactions, 100 µL of 10% trichloroacetic acid (TCA) was added, mixed and transferred to filter-plates (Millipore; cat.# MSFBN6B10; www.millipore.com). Plates were centrifuged at 930 × g (Allegra X-15R—Beckman Coulter, Inc.) for 2 min followed by two additional 10% TCA washes and one ethanol wash followed by centrifugation. Plates were dried and 30 µL MicroScint-O (

PRMT3 = PRMT3 (Homo sapiens, UniProt O60678)
Experimental: as §1

PRMT4 = biological target: T1, PRMT4 (Homo sapiens, UniProt Q86X55)
T1 construct: gene CARM1
T1 sequence (Q86X55 1-608): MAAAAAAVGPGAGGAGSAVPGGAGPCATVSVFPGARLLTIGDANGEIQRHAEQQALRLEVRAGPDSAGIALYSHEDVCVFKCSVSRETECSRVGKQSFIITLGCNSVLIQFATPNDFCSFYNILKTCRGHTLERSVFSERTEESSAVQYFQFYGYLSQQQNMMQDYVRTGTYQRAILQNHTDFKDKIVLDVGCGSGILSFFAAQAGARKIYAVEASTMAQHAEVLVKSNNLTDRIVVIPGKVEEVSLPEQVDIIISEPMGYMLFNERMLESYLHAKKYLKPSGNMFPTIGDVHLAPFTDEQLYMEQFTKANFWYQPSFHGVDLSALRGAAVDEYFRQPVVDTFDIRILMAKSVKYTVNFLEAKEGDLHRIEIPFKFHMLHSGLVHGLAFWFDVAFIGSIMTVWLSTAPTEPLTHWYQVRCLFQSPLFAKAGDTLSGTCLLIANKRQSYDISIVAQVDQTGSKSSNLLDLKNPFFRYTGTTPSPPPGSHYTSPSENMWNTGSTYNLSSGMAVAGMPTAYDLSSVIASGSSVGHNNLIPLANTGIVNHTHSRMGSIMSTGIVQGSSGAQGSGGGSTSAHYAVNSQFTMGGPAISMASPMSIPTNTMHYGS
Experimental: as §1

PRMT5-MEP50 = PRMT5-MEP50 (Homo sapiens, UniProt O14744)
Experimental: as §1

Chain of PRMT5-MEP50 (O14744 whole entry): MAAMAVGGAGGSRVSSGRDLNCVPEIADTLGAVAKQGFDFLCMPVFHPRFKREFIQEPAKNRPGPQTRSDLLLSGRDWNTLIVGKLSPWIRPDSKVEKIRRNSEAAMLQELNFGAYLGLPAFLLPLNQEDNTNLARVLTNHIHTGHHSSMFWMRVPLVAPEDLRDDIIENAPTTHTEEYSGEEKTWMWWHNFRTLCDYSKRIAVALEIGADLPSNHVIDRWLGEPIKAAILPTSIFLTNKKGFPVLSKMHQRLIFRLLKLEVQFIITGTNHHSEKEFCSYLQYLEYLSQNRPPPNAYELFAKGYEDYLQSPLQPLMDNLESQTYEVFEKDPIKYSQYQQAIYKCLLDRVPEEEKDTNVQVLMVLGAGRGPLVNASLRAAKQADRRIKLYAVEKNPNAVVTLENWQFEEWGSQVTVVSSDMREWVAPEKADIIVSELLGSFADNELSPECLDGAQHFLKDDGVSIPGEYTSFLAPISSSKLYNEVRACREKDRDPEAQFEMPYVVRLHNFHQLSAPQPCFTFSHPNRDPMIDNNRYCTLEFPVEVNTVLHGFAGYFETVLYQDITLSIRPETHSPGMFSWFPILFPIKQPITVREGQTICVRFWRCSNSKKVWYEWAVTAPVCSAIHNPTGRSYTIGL
Chain of PRMT5-MEP50 (Q9BQA1 whole entry partner): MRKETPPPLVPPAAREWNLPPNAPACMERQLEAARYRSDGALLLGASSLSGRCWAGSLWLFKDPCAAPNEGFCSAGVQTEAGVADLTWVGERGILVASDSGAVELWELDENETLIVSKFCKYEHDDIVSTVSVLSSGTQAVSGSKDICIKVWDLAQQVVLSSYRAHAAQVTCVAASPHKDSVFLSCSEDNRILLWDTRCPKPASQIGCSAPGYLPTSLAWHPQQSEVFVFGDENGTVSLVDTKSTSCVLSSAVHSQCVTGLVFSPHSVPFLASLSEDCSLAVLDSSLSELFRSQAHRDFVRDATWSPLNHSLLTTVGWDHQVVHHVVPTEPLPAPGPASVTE
Chain of PRMT3 (O60678 whole entry): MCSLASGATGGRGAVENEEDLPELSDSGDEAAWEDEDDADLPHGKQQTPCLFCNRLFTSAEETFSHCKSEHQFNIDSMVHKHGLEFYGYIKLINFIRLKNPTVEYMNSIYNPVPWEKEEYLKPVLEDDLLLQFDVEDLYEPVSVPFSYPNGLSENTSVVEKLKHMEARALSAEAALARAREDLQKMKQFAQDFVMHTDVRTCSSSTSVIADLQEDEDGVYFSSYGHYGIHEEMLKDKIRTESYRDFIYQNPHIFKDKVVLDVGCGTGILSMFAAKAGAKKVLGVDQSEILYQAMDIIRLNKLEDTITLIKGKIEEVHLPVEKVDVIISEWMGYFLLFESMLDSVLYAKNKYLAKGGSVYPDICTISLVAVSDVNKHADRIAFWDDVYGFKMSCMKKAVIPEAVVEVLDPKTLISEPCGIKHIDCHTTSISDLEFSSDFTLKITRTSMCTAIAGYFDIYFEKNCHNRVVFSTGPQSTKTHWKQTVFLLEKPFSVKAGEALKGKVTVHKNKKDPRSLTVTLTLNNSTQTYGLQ
Chain of PRMT1 (Q99873 whole entry): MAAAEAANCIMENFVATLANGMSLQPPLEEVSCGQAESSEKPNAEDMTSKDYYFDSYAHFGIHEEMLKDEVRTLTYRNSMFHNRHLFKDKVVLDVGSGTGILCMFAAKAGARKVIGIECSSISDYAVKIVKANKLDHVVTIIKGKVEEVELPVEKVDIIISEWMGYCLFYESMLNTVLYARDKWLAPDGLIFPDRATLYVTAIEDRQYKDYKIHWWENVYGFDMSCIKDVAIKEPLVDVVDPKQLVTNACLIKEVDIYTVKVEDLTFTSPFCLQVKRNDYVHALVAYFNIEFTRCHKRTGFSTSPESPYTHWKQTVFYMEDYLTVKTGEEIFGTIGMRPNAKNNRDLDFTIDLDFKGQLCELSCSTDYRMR

## Nc1ncnc2c1ncn2[C@@H]1O[C@H](CSCCCNCc2cccc(-c3ccc(Cl)cc3)c2)[C@@H](O)[C@H]1O [SGC8172]
PRMT1
  IC50: > 5000 nM
PRMT3
  IC50: 269 nM
PRMT4
  IC50: 3.6 nM
PRMT5-MEP50
  IC50: 44 nM

Reference: publication PMC7224190, “Pharmacological inhibition of PRMT7 links arginine monomethylation to the cellular stress response” (Nature Communications, 2020)
